Assays:
Assay type in all cases: biochemical
[1] = target: T1, MST2 (serine/threonine-protein kinase 3, STK3) (Homo sapiens, UniProt Q13188); experiment: […] cell-free kinase screen, […] inhibition at […]
T1 sequence (Q13188 1-491): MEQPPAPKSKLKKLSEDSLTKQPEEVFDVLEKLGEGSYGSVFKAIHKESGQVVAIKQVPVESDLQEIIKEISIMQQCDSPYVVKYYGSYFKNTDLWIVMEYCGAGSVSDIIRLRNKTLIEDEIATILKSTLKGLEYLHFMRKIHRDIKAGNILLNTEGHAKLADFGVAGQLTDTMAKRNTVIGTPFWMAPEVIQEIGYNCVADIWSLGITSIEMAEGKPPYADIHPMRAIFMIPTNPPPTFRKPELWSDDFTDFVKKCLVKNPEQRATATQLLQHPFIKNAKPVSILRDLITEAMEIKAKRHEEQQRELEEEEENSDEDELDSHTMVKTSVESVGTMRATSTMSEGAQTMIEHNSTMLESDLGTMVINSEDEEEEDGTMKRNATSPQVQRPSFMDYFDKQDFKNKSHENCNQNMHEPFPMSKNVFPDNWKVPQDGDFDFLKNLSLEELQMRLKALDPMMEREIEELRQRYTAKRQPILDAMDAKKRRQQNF

[2] = target: PIM1 (proto-oncogene serine/threonine-protein kinase 1) (Homo sapiens, UniProt P11309); experiment: […] cell-free kinase screen, […] inhibition at […]
Sequence of PIM1 (proto-oncogene serine/threonine-protein kinase 1) (P11309 whole entry): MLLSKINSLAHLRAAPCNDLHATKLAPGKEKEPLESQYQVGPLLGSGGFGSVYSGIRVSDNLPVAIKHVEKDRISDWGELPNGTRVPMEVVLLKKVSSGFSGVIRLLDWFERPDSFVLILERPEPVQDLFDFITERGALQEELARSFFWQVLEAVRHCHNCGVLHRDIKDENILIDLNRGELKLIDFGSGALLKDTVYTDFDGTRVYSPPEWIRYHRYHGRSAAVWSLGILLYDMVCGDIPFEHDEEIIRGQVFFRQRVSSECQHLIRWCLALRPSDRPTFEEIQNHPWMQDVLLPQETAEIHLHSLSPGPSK

[3] = target: PIM3 (proto-oncogene serine/threonine-protein kinase 3) (Homo sapiens, UniProt Q86V86); experiment: […] cell-free kinase screen, […] inhibition at […]
[4] = target: T2, GSK3β (Homo sapiens, UniProt P49841); experiment: in vitro GSK3β kinase assay (IC50) and […] cell-free kinase screen
T2 construct: gene GSK3B
T2 sequence (P49841 whole entry): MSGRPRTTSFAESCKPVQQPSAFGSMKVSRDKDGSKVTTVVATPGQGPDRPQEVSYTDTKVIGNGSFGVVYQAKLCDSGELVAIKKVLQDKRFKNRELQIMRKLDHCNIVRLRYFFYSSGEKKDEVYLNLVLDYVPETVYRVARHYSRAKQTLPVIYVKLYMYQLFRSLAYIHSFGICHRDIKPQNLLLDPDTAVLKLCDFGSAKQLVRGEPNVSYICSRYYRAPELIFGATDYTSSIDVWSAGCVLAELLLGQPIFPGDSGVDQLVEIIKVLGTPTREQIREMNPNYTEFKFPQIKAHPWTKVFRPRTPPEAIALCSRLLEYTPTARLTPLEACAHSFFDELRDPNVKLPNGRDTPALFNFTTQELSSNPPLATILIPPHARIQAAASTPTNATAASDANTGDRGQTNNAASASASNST

SMILES: Cn1cc(C2=C(c3coc4ccc(F)cc34)C(=O)NC2=O)c2cc3c(cc21)OCO3 [elraglusib]
- inhibition at 5 µM [1]: > 50%
- inhibition at 5 µM [2]: > 50%
- inhibition at 5 µM [3]: > 50%
- IC50 [4]: 370 nM
